Reference: patent US6525041B1, “Manganese or iron complexes of nitrogen-containing macrocyclic ligands effective as catalysts for dismutating superoxide” (Pharmacia Corporation, priority 1995, dated 2003)

Assay: Stopped-flow kinetic analysis of catalytic dismutation of superoxide
Format: biochemical
Conditions: pH=8.1 and 21° C., 80 mM Hepes buffer, absorbance at 245 nm
Description: Stopped-flow kinetic analysis is an accurate and direct method for quantitatively monitoring the decay rates of superoxide in water. The stopped-flow kinetic analysis is suitable for screening compounds for SOD activity and catalytic activity of the compounds or complexes of the present invention for dismutating superoxide, as shown by stopped-flow analysis, correlate to treating the above disease states and disorders. […]
Water for buffer solutions was delivered from an in-house deionized water system to a Barnstead Nanopure Ultrapure Series 550 water system and then double distilled, first from alkaline potassium permanganate and then from a dilute EDTA solution. […] This system produces deoxygenated water that can be measured to have a conductivity of less than 2.0 nanomhos/cm^2.
The stopped-flow spectrometer system was designed and manufactured by Kinetic Instruments Inc. (Ann Arbor, Mich.) and was interfaced to a MAC IICX personal computer. […] Since the published extinction coefficient of superoxide in H2O at 245 nm is ˜2250 M^−1 cm^−1 (1), an initial absorbance value of approximately 0.3-0.5 would be expected for a 2-cm path length cell, and this was observed experimentally. […]

OCCCC1NCCNCCNCCNCCNC1CCCO.[Cl][Mn][Cl] (stereo not drawn) [Example 1, [Manqanese(II)dichloro (trans-2,3-bis(3-hydroxypropyl)-1,4,7,10,13-pentaazacyclopentadecane)]]
catalytic rate constant for dismutation of superoxide (kcal): 1.8e+07 M⁻¹ s⁻¹
